According to ChEMBL document CHEMBL1156829 (Proc Natl Acad Sci U S A, 2008):

Columns and labels:
Plasmodium falciparum [1] = test: NOVARTIS: Inhibition of Plasmodium falciparum 3D7 (drug-susceptible) proliferation in erythrocyte-based infection assay; format: functional, organism-based; conditions: Plasmodium falciparum, 3D7
Plasmodium falciparum [2] = test: NOVARTIS: Inhibition of Plasmodium falciparum W2 (drug-resistant) proliferation in erythrocyte-based infection assay; format: functional, organism-based; conditions: Plasmodium falciparum, W2; read-out: EC50
[3] = NOVARTIS: Cytotoxicity against human hepatocellular carcinoma cell line (Huh7); format: toxicity, cell-based, Huh-7; conditions: Huh7 cells (hepatocellular carcinoma cell line)

Row | Structure (SMILES) | EC50 (Plasmodium falciparum [1]) [nM] | EC50 (Plasmodium falciparum [2]) [nM] | CC50 [3] [nM]
1 | Nc1nc(Nc2cccc(Cl)c2)n[nH]1 | 1680 | 958 | > 100000
2 | Cc1ccc(N=C2NC(=O)/C(=C/c3cc(C)n(-c4cccc([N+](=O)[O-])c4)c3C)S2)cc1 | 353 | 985 | > 100000
3 | CCCC[C@@H](C)[C@@H](O)[C@H]1C(=O)N[C@@H](C(C)C)C(=O)N(C)[C@H](SC)C(=O)N(C)[C@@H](CC(C)C)C(=O)N[C@@H](C(C)C)C(=O)N(C)[C@@H](CC(C)C)C(=O)N[C@@H](C)C(=O)N[C@H](C)C(=O)N(C)[C@@H](CC(C)C)C(=O)N(C)[C@@H](CC(C)C)C(=O)N(C)[C@@H](C(C)C)C(=O)N1C | 32.5 | 51.7 | 5180
4 | Cc1ccc(-c2cc3c(nn2)-c2ccccc2C3=O)cc1 | 2000 | 799 | 83200
5 | N=C(N)c1ccc(OCCCOc2ccc(C(=N)N)cc2)cc1 | 75.5 | 59.5 | > 6250
6 | CCn1c2c(c(=N)c3ccccc31)CCC2 | 341 | 954 | > 100000
7 | CC(C)(C)C1CCc2[nH]c3ccccc3c(=O)c2C1 (centres undefined) | 852 | 976 | > 100000
8 | C(=NNc1nc2ccccc2[nH]1)c1cccc(Oc2ccccc2)c1 | 302 | 962 | > 100000
9 | NCCCNC(=O)COC(c1ccccc1)c1cccnc1Cl (centres undefined) | 81.7 | 100 | > 10000
10 | COc1cc2cc(C(=O)Nc3ccccc3)c(N)nc2cc1OC | 409 | 964 | > 100000
11 | O=C(Cc1ccccc1)NCc1nnc(SCC(=O)N2N=C(c3cccs3)CC2c2ccc(F)cc2)n1Cc1ccccc1 (centres undefined) | 8850 | 984 | > 100000
12 | CCC(C)NC(=O)c1cc(NC(=O)/C=C/c2ccc([N+](=O)[O-])cc2)ccc1N1CCN(c2ccccc2OC)CC1 (centres undefined) | > 1250 | 54.3 | 5550
13 | CC(=O)OC1(C)CC(C)C(=O)C(C(O)CC2CC(=O)NC(=O)C2)C1 (centres undefined) | 74.7 | 58.7 | > 5890
14 | COc1cc(NCc2cnc(N)nc2N)cc(OC)c1 | 330 | 99.2 | > 10000
15 | CNCC(O)c1ccc(Cl)c(Cl)c1 (centres undefined) | 837 | 99.1 | > 10000
16 | COc1ccc(S(=O)(=O)N2CCN(C(=S)NC3CCCCC3)CC2)cc1 | 8540 | 1000 | > 100000
17 | CNC1=C(N(Cc2ccc(Cl)c(Cl)c2)C(C)=O)C(=O)c2ccccc2C1=O | 1.23 | 1.26 | 126
18 | Cc1noc(C)c1S(=O)(=O)N(Cc1ccccc1)CC(O)CN1CCC(NC(=O)c2ccccc2Cl)C1 (centres undefined) | 256 | 99.7 | > 10000
19 | COc1ccc(NC(=O)Cn2ncc3ccccc32)cc1OC | > 1250 | 984 | > 100000
20 | C=CCNC(=O)c1cc2c(=O)n3cccc(C)c3nc2n(CCc2ccccc2)c1=N | 702 | 982 | > 100000
21 | C=C[C@H]1CN2CC[C@H]1C[C@@H]2[C@@H](OC(=O)CCCCl)c1ccnc2ccccc12 | 49 | 96.8 | > 10000
22 | COc1cccc(C2C(C(=O)Nc3ccccc3)=C(C)N=c3sc(=Cc4c[nH]c5ccccc45)c(=O)n32)c1 (centres undefined) | 2470 | 964 | > 100000
23 | CC(=O)N(C1=C(N2CCOCC2)C(=O)c2ccccc2C1=O)c1ccc(C(C)C)c(C)c1 | 25.6 | 88.1 | 9150
24 | CC(C)(C)OC(=O)N1CCC(c2c(C(=O)Nc3cccc(C(F)(F)F)c3)cnn2-c2ccc(F)cc2F)CC1 | 1270 | 990 | > 100000
25 | CCOc1ccc(Nc2ccnc3cc(Cl)ccc23)cc1 | 956 | 986 | > 100000
26 | C=CC1CN2CCC1CC2[C@H](c1ccnc2ccccc12)S(=O)(=O)O (some centres undefined) | 152 | 97.1 | > 10000
27 | COc1ccccc1C(c1nnnn1Cc1ccc(F)cc1)N1CCN(C)CC1 (centres undefined) | 11900 | 970 | > 100000

Row | Structure (SMILES) | EC50 (Plasmodium falciparum [1]) [nM] | EC50 (Plasmodium falciparum [2]) [nM] | CC50 [3] [nM]
28 | Brc1ccc2[nH]c3c(NCCCN4CCOCC4)ncnc3c2c1 | 359 | 957 | > 98700
29 | COc1cccc(C(=O)C[n+]2cc(-c3ccc(Cl)cc3)n3c2CCC3)c1 | 1740 | 975 | > 100000
30 | CCCCCCOc1ccc(NC(=O)c2cccs2)cc1 | 396 | 972 | > 100000
31 | CCOC(=O)c1cc(-c2ccc(C)cc2)n(CCC(=O)Nc2cccc(C(F)(F)F)c2)c1C | 823 | 327 | 33700
32 | CCN(CC)CCN(Cc1cc2c(C)cc(C)cc2[nH]c1=O)C(=S)NCCCN(C)C | 1850 | 723 | > 76300
33 | COc1cncc(-c2cncc(N3CCN(c4ccncc4)CC3)n2)c1 | 80.4 | 94.7 | > 10000
34 | CCC(Sc1nnc(-c2ccc(C)cc2)c(-c2ccc(C)cc2)n1)C(=O)NCCOC (centres undefined) | 477 | 753 | 77000
35 | CCCCCCN(C(=O)COCc1ccccc1)C(CC)c1nc2ccccc2c(=O)n1-c1cccc(Cl)c1 (centres undefined) | 42.2 | 75.8 | > 7770
36 | COc1ccc(C(=O)NC(c2ccccc2Cl)c2cc(Cl)c3cccnc3c2O)cc1 (centres undefined) | 2370 | 833 | > 87000
37 | O=C(Nc1ccccc1)NC1CC2CCCC(C1)N2CCc1ccccc1 (centres undefined) | 156 | 98.2 | > 10000
38 | C(#Cc1ccccc1)C[N+]1(CCOc2ccccc2)CCCCC1 | 1440 | 981 | > 100000
39 | CC(C)(C)CC(C)(C)Nc1c(-c2ccccc2OC(=O)c2ccccc2F)nc2ccccn12 | 1300 | 97.9 | > 10000
40 | Cc1c(/C=C2\SC(=Nc3ccccc3F)N(C3CCCCC3)C2=O)c2ccccc2n1CC(N)=O | 301 | 961 | > 100000
41 | O=C(CC1N=C2c3ccccc3N=C(SCc3cccc(F)c3)N2C1=O)NCc1cccs1 (centres undefined) | 1190 | 960 | > 100000
42 | O=C1c2ccccc2-c2nc3nnnn3nc21 | 239 | 98.7 | > 10000
43 | Nc1ccc2nc(-c3cccc(-c4nc5ccc(N)cc5s4)c3)sc2c1 | 283 | 995 | > 100000
44 | Cc1cccc(NC(=O)c2sc3nc4c(c(-c5cccs5)c3c2N)CCCCC4)c1 | > 12500 | 995 | > 100000
45 | O=c1c2c([nH]c3ccccc13)CCCC2 | 628 | 991 | > 100000
46 | CC(=O)NC1=NN(C(C)=O)C(c2ccc(Br)cc2)S1 (centres undefined) | > 7540 | 976 | > 100000
47 | COc1cc(NC(C)CCCN(Cc2ccc(N(C)C)cc2)C(=O)C(Cl)Cl)c2ncccc2c1 (centres undefined) | 948 | 66.6 | > 6790
48 | N#Cc1c(N)nc(SCC(=O)c2ccc(Br)cc2)c(C#N)c1-c1ccccc1 | 581 | 560 | > 56600
49 | COc1ccc(OC)c(-c2ccc(O)c(CNC3CCCCCC3)c2)c1 | 364 | 97.5 | > 10000
50 | O=C(N/C(=C/C=C/c1ccccc1)C(=O)N1CCOCC1)c1ccccc1 | > 1250 | 98.5 | > 10000
51 | O=C(O)c1ccc2c(c1)N=CN(C1CCCCC1)C2 | 268 | 98.3 | > 10000
52 | C=Cc1cc2ccccc2c2cc3c(cc12)C[N+](C)(C)C3 | 654 | 974 | > 100000
53 | CCCCN(CCCC)S(=O)(=O)c1ccc(NC(=O)c2ccco2)cc1 | 1420 | 637 | > 65700
